Assays:
[1] = target: AM2-S31N mutant of the A/M2 proteins (Influenza A virus, UniProt P0DOF5, S31N); type: biochemical; settings: pH 5.5
A/WSN/33 (H1N1) virus = type: cell-based, influenza A virus

With `CC(C)[Si](c1ccc(CNC23CC4CC(CC(O)(C4)C2)C3)cc1)(C(C)C)C(C)C` [Compound 5f] the “% AM2-S31N inhibition” value [1] was “inactive” and the “A/WSN/33 EC50” value (A/WSN/33 (H1N1) virus) was “inactive”.
